Legend:
JAK1 = JAK1 (Homo sapiens (Human), UniProt P23458); assay: JAK1 kinase inhibition; assay type: biochemical; details: for inhibition at 0.1 µM: read-out: JAK1 % inhibition at 100 nM; for inhibition at 1 µM: read-out: JAK1 % inhibition at 1 μM
JAK2 = JAK2 (Homo sapiens (Human), UniProt O60674); assay: TR-FRET JAK2 kinase assay; assay type: biochemical; details: ATP 10 μM; for inhibition at 0.1 µM: read-out: JAK2 % inhibition at 100 nM, 100 nM; for inhibition at 1 µM: read-out: JAK2 % inhibition at 1 μM
JAK2, sequence (O60674 whole entry): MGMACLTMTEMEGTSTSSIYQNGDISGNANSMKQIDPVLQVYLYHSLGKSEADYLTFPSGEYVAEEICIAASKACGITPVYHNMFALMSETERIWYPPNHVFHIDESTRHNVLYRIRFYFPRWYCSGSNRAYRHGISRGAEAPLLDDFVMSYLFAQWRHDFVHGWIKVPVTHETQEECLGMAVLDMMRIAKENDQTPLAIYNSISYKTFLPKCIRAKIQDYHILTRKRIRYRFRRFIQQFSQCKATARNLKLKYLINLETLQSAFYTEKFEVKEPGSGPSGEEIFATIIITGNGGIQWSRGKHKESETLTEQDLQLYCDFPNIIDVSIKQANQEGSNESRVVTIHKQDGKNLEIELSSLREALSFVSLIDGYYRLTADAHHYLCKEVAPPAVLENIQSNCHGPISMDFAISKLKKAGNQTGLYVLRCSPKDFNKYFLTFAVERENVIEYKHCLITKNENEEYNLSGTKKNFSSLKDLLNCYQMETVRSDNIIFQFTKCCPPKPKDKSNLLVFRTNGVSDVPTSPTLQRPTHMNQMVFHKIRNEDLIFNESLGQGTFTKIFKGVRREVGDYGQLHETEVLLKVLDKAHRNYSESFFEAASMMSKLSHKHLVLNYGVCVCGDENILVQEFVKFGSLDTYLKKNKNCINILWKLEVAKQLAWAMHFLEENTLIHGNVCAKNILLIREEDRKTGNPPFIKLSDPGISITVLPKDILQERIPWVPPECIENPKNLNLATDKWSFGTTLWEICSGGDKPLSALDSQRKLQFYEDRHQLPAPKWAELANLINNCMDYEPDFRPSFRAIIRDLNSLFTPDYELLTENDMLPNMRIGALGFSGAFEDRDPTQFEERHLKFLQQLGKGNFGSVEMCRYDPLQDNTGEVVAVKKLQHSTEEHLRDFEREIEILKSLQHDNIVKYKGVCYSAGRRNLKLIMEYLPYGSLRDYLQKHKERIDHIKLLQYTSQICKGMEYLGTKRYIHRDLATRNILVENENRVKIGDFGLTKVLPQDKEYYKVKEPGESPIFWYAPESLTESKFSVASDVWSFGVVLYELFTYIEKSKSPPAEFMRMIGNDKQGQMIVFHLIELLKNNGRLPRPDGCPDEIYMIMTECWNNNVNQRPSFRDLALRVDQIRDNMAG
Description: (§1) Compounds were screened in the TR-FRET assay for JAK2 and c-Src kinase inhibition. Ultra light poly GT (Perkin Elmer) was used as the substrate for JAK2 and c-Src with the ATP concentration of 10 μM and 50 μM, respectively. […] The dose-response curve fitting was done using GraphPad Prism software.

Mda-Mb-231 cells = assay: Cell viability assay (XTT assay), Mda-Mb-231; assay type: cell-based; details: Homo sapiens, 72 hrs
Description: Mda-Mb-231 or A549 cells were seeded onto a 96-well micro plate. Next day compounds were added to cells and incubated for 72 hrs. Compound treatment was done in triplicates. After 72 hrs cell culture media was aspirated from the wells and XTT working solution was added and plates were incubated for 2-5 hrs. The absorbance of the samples was measured with a spectrophotometer at a wavelength of 465 nm. EC50 values were calculated using Graphpad Prism. Tumor cell lines used in the examples of the present invention were procured from ATCC. Description of the cell lines is included in the following table: […]

A431 cancer cell line = assay: Inhibition of cell growth in A431; assay type: cell-based; details: Homo sapiens, A-431
c-Src = c-Src (Homo sapiens (Human), UniProt P12931); assay: TR-FRET c-Src kinase assay; assay type: biochemical; details: ATP 50 μM; for inhibition at 0.1 µM: read-out: c-SRC % inhibition at 100 nM, 100 nM; for inhibition at 1 µM: read-out: c-SRC % inhibition at 1 μM
c-Src, sequence (P12931 whole entry, looked up): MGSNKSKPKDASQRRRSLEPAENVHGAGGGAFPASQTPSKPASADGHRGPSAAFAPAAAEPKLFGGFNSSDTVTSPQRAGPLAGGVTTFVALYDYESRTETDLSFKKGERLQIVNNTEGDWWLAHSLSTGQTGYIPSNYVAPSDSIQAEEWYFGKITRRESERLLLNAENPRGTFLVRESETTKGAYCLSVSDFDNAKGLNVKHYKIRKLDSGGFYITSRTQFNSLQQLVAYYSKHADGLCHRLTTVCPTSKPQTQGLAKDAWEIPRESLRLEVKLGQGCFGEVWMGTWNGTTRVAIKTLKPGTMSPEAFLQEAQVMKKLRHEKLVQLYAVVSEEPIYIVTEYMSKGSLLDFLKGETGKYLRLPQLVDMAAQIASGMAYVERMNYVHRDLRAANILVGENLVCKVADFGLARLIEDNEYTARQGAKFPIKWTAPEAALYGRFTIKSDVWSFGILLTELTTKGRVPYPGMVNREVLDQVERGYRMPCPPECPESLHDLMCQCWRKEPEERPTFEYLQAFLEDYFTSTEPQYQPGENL
Description: as §1

pStat3 = assay: In-Cell-Western blot assay for pStat3 (ICW) in A431 cells; assay type: cell-based; details: Homo sapiens, A-431, 2 hrs, read-out: pSTAT3 inhibition
Description: A431 cells were seeded onto a 96-well micro plate. After overnight serum starvation cells were incubated with compounds for 2 hrs. Cells were fixed with 4% paraformaldehyde in PBS and then permeabilized with 0.1% Triton X-100 in PBS (PBST). Cells were blocked with 5% BSA in PBST for 2 hrs, followed by overnight incubation with phospho Stat3 antibody. Cells were washed and incubated with europium-labeled anti-rabbit secondary antibody for 2 hrs. After washing enhancement solution was added to the wells. The micro-plate was read on the Victor instrument at the Europium setting. The Hoechst readings were used to normalize for cell number. IC50 values were calculated with the normalized europium values using Graphpad Prism.

JAK1, sequence (P23458 whole entry): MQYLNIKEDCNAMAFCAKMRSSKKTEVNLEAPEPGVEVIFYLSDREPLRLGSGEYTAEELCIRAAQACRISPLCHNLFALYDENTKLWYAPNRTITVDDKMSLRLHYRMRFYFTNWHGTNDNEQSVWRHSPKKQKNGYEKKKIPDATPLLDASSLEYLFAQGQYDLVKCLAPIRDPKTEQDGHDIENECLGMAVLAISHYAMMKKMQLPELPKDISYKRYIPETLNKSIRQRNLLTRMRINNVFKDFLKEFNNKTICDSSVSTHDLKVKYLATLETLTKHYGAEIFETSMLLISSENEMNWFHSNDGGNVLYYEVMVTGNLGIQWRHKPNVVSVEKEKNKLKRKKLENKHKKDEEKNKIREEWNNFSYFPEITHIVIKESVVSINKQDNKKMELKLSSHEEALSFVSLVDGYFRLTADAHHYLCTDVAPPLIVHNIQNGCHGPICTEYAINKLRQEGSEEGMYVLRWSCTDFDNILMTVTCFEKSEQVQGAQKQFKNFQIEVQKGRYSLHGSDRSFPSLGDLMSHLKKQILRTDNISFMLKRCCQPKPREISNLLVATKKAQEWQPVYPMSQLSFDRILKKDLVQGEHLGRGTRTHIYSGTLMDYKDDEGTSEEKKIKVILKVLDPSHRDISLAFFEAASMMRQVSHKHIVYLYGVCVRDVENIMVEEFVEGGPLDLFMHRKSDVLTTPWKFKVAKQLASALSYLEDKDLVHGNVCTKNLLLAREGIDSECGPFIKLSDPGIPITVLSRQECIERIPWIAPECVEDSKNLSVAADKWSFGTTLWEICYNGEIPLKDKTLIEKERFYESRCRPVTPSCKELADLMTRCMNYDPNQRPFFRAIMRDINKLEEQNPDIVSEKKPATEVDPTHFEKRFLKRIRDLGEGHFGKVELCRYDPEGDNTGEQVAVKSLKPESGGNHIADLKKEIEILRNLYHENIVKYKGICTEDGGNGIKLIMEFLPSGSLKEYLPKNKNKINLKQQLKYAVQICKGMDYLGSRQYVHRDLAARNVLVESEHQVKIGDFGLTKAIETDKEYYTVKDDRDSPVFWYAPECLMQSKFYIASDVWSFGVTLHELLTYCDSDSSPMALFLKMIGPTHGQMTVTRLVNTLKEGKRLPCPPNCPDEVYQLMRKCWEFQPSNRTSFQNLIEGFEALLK

Row | inhibition at 0.1 µM (JAK1) | inhibition at 1 µM (JAK1) | JAK1 % inhibition at 100 nM (JAK1; 100 nM) | JAK1 % inhibition at 1 μM (JAK1; 1 μM) | inhibition at 0.1 µM (JAK2) | inhibition at 1 µM (JAK2) | EC50 (Mda-Mb-231 cells) | EC50 (A431 cancer cell line) | IC50 (c-Src) | IC50 (pStat3) | IC50 (JAK2) | inhibition at 0.1 µM (c-Src) | inhibition at 1 µM (c-Src) | Structure (SMILES)
1 | 82% | 89% |  |  |  |  |  |  |  |  |  |  |  | Cc1ccc(NC(=O)c2cccc(C(F)(F)F)c2)cc1N1CCc2nc(Nc3ccc4c(c3)CCC(=O)N4)ncc2C1 [Compound 18, N-{4-Methyl-3-[2-(2-oxo-1,2,3,4-tetrahydro-quinolin-6-ylamino)-7,8-dihydro-5H-pyrido[4,3-d]pyrimidin-6-yl]-phenyl}-3-trifluoromethyl-benzamide]
2 | 57% | 79% |  |  |  |  |  |  |  |  |  |  |  | Cc1ccc(NC(=O)c2cccc(C(F)(F)F)c2)cc1N1CCc2nc(Nc3ccncc3)ncc2C1=O [Compound 26, N-{4-Methyl-3-[5-oxo-2-(pyridin-4-ylamino)-7,8-dihydro-5H-pyrido[4,3-d]pyrimidin-6-yl]-phenyl}-3-trifluoromethyl-benzamide]
3 |  |  | 66% | 79% |  |  |  |  |  |  |  |  |  | Cc1ccc(C(=O)Nc2cccc(C(F)(F)F)c2)cc1N1CCc2nc(Nc3ccc(Cl)cc3)ncc2C1 [Compound 28]
4 |  |  |  |  | 83% | 97% | 4670 nM | 1060 nM | 19 nM |  |  |  |  | Cc1ccc(NC(=O)c2cccc(C(F)(F)F)c2)cc1N1CCc2nc(Nc3ccc(C(=O)N4CCN(C)CC4)cc3)ncc2C1=O [Compound 75, N-(4-Methyl-3-{2-[4-(4-methyl-piperazine-1-carbonyl)-phenylamino]-5-oxo-7,8-dihydro-5H-pyrido[4,3-d]pyrimidin-6-yl}-phenyl)-3-trifluoromethylbenza-mide]
5 |  |  |  |  |  |  | 2150 nM | 135 nM | 30 nM | 130 nM | 61 nM |  |  | Cc1ccc(NC(=O)c2cccc(C(F)(F)F)c2)cc1N1CCc2nc(Nc3ccc(CC(=O)N4CCN(C)CC4)cc3)ncc2C1=O [Compound 76, N-[4-Methyl-3-(2-{4-[2-(4-methyl-piperazin-1-yl)-2-oxo-ethyl]-phenylamino}-5-oxo-7,8-dihydro-5H-pyrido[4,3-d]pyrimidin-6-yl)-phenyl]-3-trifluoromethylbenza-mide]
6 |  |  |  |  | 80% | 96% | 4920 nM | 512 nM | 17 nM | 510 nM |  |  |  | Cc1ccc(NC(=O)c2cccc(C(F)(F)F)c2)cc1N1CCc2nc(Nc3ccc(C(=O)NCCCN4CCCC4)cc3)ncc2C1=O [Compound 77, N-(4-methyl-3-(5-oxo-2-(4-(3-(pyrrolidin-1-yl)propylcarbamoyl)phenylamino)-7,8-dihydropyrido[4,3-d]pyrimidin-6(5H)-yl)phenyl)-3-(trifluoromethyl) benzamide]
7 |  |  |  |  |  |  | 5 nM | 26 nM |  | 26 nM |  |  |  | Cc1ccc(NC(=O)c2cccc(C(F)(F)F)c2)cc1N1CCc2nc(Nc3ccc(C(=O)NC4CCN(C)CC4)cc3)ncc2C1 [Compound 92]
8 |  |  |  |  |  |  | 120 nM | 290 nM | 6 nM | 300 nM | 14 nM |  |  | Cc1ccc(NC(=O)c2cccc(C(F)(F)F)c2)cc1N1CCc2nc(Nc3ccc(C(=O)N4CCCC4)cc3)ncc2C1 [Compound 99, N-(4-Methyl-3-{2-[4-(pyrrolidine-1-carbonyl)-phenylamino]-7,8-dihydro-5H-pyrido[4,3-d]pyrimidin-6-yl}-phenyl)-3-trifluoromethyl-benzamide]
9 |  |  |  |  | 74% | 93% | 440 nM | 320 nM | 16 nM | 257 nM | 54 nM | 93% | 98% | Cc1ccc(NC(=O)c2cccc(C(F)(F)F)c2)cc1N1CCc2nc(Nc3ccc(S(=O)(=O)NC4CC4)cc3)ncc2C1 [Compound 165, N-{3-[2-(4-Cyclopropylsulfamoyl-phenylamino)-7,8-dihydro-5H-pyrido[4,3-d]pyrimidin-6-yl]-4-methyl-phenyl}-3-trifluoromethyl-benzamide]
10 |  |  |  |  | 91% | 92% | 1750 nM |  | 17 nM | 150 nM | 7 nM | 77% | 90% | Cc1ccc(NC(=O)c2cccc(C(F)(F)F)c2)cc1N1CCc2nc(Nc3ccc(N4CCNCC4)cc3)ncc2C1=O [Compound 178, N-{4-Methyl-3-[5-oxo-2-(4-piperazin-1-yl-phenylamino)-7,8-dihydro-5H-pyrido[4,3-d]pyrimidin-6-yl]-phenyl}-3-trifluoromethyl-benzamide]

The next lines start with the molecule.

Row | Structure (SMILES) | inhibition at 0.1 µM (JAK1) | inhibition at 1 µM (JAK1) | JAK1 % inhibition at 100 nM (JAK1; 100 nM) | JAK1 % inhibition at 1 μM (JAK1; 1 μM) | inhibition at 0.1 µM (JAK2) | inhibition at 1 µM (JAK2) | EC50 (Mda-Mb-231 cells) | EC50 (A431 cancer cell line) | IC50 (c-Src) | IC50 (pStat3) | IC50 (JAK2) | inhibition at 0.1 µM (c-Src) | inhibition at 1 µM (c-Src)
11 | Cc1ccc(NC(=O)c2cccc(C(F)(F)F)c2)cc1N1CCc2nc(Nc3ccc(OCCN4CCCC4)cc3)ncc2C1 [Compound 9, N-(4-Methyl-3-{2-[4-(2-pyrrolidin-1-yl-ethoxy)-phenylamino]-7,8-dihydro-5H-pyrido[4,3-d]pyrimidin-6-yl}-phenyl)-3-trifluoromethyl-benzamide] | 58% | 85% |  |  |  |  |  |  |  |  |  |  | 
12 | Cc1ccc(NC(=O)c2cccc(C(F)(F)F)c2)cc1N1CCc2nc(Nc3ccncc3)ncc2C1 [Compound 15, N-{4-Methyl-3-[2-(pyridin-4-ylamino)-7,8-dihydro-5H-pyrido[4,3-d]pyrimidin-6-yl]-phenyl}-3-trifluoromethyl-benzamide] | 49% | 73% |  |  |  |  |  |  |  |  |  |  | 
13 | Cc1ccc(NC(=O)c2cccc(C(F)(F)F)c2)cc1N1CCc2nc(Nc3cccnc3)ncc2C1 [Compound 23, N-{4-Method-3-[2-(pyridin-3-ylamino)-7,8-dihydro-5H-pyrido[4,3-d]pyrimidin-6-yl]-phenyl}-3-trifluoromethyl-benzamide] | 84% | 88% |  |  |  |  |  |  |  |  |  |  | 
14 | Cc1ccc(NC(=O)c2cccc(C(F)(F)F)c2)cc1N1CCc2nc(Nc3ccnc(Cl)c3)ncc2C1 [Compound 25, N-{3-[2-(2-Chloro-pyridin-4-ylamino)-7,8-dihydro-5H-pyrido[4,3-d]pyrimidin-6-yl]-4-methyl-phenyl}-3-trifluoromethyl-benzamide] | 58% | 96% |  |  |  |  |  |  |  |  |  |  | 
15 | CNC(=O)c1ccc(Nc2ncc3c(n2)CCN(c2cc(NC(=O)c4cccc(C(F)(F)F)c4)ccc2C)C3)cn1 [Compound 83, 5-{6-[2-Methyl-5-(3-trifluoromethyl-benzoylamino)-phenyl]-5,6,7,8-tetrahydro-pyrido[4,3-d]pyrimidin-2-ylamino}-pyridine-2-carboxylic acid methylamide] |  |  |  |  |  |  | 305 nM | 240 nM | 4 nM | 240 nM | 32 nM |  | 
16 | Cc1ccc(NC(=O)c2cccc(C(F)(F)F)c2)cc1N1CCc2nc(Nc3cncnc3)ncc2C1 [Compound 94, N-{4-Methyl-3-[2-(pyrimidin-5-ylamino)-7,8-dihydro-5H-pyrido[4,3-d]pyrimidin-6-yl]-phenyl}-3-trifluoromethyl-benzamide] |  |  |  |  |  |  | 50 nM | 180 nM | 2 nM | 160 nM | 19 nM |  | 
17 | Cc1ccc(NC(=O)c2cccc(C(F)(F)F)c2)cc1N1CCc2nc(Nc3ccc(C(=O)NCCO)cc3)ncc2C1 [Compound 98] |  |  |  |  |  |  | 50 nM | 61 nM | 1 nM | 60 nM | 7 nM |  | 
18 | Cc1ccc(NC(=O)c2ccc(C(F)(F)F)s2)cc1N1CCc2nc(Nc3ccc(OCCN4CCCC4)cc3)ncc2C1 [Compound 106, 5-Trifluoromethyl-thiophene-2-carboxylic acid (4-methyl-3-{2-[4-(2-pyrrolidin-1-yl-ethoxy)-phenylamino]-7,8-dihydro-5H-pyrido[4,3-d]pyrimidin-6-yl}-phenyl)-amide] |  |  |  |  | 85% | 98% | 310 nM | 220 nM | 2 nM | 220 nM | 18 nM | 99% | 100%
19 | Cc1ccc(NC(=O)N2CCCCC2)cc1N1CCc2nc(Nc3ccc(OCCN4CCCC4)cc3)ncc2C1 [Compound 107, Piperidine-1-carboxylic acid (4-methyl-3-{2-[4-(2-pyrrolidin-1-yl-ethoxy)-phenylamino]-7,8-dihydro-5H-pyrido[4,3-d]pyrimidin-6-yl}-phenyl)-amide] |  |  |  |  | 72% | 94% | 610 nM | 120 nM | 1 nM | 120 nM | 40 nM | 93% | 98%

Source: US8962637B2, “Bicyclic compounds and their uses as dual c-SRC/JAK inhibitors” (Debiopharm S.A., priority 2010, dated 2015)
